# In paper PMC8179358, “An explicitly designed paratope of amyloid-β prevents neuronal apoptosis in vitro and hippocampal damage in rat brain” (Chemical Science, 2020):
# *1 amine or outer side, *2 acyl side, *3 side chain or, on linkers, in order; H or OH if unused. Where a SMILES comes first, the peptide text is derived from it. Bridges are numbered along the chain shown (N, C = ends). Roman numbers before positions name the chains, in order. [ ]: non-standard residue; d: D form. X1 = O=C(CCCCC(=O)[*:2])NCCCOCCOCCOCCCNC(=O)CCC(=O)[*:1]; NMeF = CN[C@@H](Cc1ccccc1)C(=O)O; NMeL = CN[C@@H](CC(C)C)C(=O)O; NMeV = CN[C@H](C(=O)O)C(C)C
# Columns and labels:
# [1] = tested on: Sprague-Dawley rats; experiment: Acute and sub-chronic toxicity, mortality, behaviour and body weight; type: in vivo
# Description: 24 male Sprague Dawley rats were randomly divided into three groups: control, SP1A, and SP1B. Each group contains 8 animals and administration of SP1was performed for 42 days through a tail vein by the following schedule: Control: Without any treatment.
# Rats were sacrificed after 42 days of injection schedule and blood was collected for hematological and biochemical estimations. For the histopathological study, the liver and kidney were also isolated very carefully and checked for cytoarchitectural changes if any.
# The body weights and volumes of SP1 to be administered were recorded for each animal. Prior to injection, the tail of the animal was warmed by using warm water circulating pad placed under the cage for 5-10 minutes to dilate the veins. A 25-gauge needle was inserted into the vein towards the direction of the head. The needle and syringe were kept parallel to the tail. […]
# µg/kg and 500 µg/kg) was injected into the tail slowly. The needle was removed very carefully and gentle compression applied until bleeding was stopped. Animals were returned to their home cage. […]
# [2] = tested on: hippocampal neurons, Aβ40-infused rats; experiment: Cresyl violet staining of Nissl granules in hippocampal neurons; type: in vivo, Sprague-Dawley rats; settings: intra-hippocampal Aβ40, vs control and sham, P < 0.01, n = 6
# Description: The overproduction of Aβ damages hippocampal neurons and causes cognitive impairments in AD. […] Cresyl violet staining was performed for identification of Nissl granules in neurons to reveal hippocampal neurodegeneration in this experiment. […]
# e. Histopathological experiments for sub-chronic toxicity
# Histopathological analysis was carried out on the preserved liver and kidney tissues. The SP1 treated rats and control rats were sacrificed by decapitation after 42 days of treatment schedule. Organs were removed and fixed in 10% buffered neutral formalin for 48 h. The fixed organs were embedded in paraffin wax. Sections were cut by using a microtome with 5-micrometer thickness. Slides were stained with Haematoxylin and eosin (H &E staining) for histological examination. Slides were observed under the light microscope (Dewinter Smart, India)for histopathological changes, and images were taken at […]
# The lyophilized Aβ40 peptide was dissolved in artificial cerebrospinal fluid (aCSF: 119mM NaCl, 26.2mm NaHCO3, 2.5mM KCl, 1mM NaH2PO4, 1.3mM MgCl2, 10mM glucose; pH 7.4) solution at a concentration of 1mg/ml for stock and incubated at 37°C for 72 h to induce aggregation. The solution finally kept at 4°C before using it. […]
# respective concentrations of SP1were prepared from this stock solution. g. […]
# [3] = tested on: SH-SY5Y cells; experiment: Intracellular ROS (DCFH-DA); type: cell-based, human; settings: Aβ40 10 μM, 24 h
# Text: Condensed or fragmented nuclear bodies characterize the distinctive nature of apoptotic cells. […] Dyshomeostasis of Ca^2+ is also responsible for the increased production of Aβ peptides, by which a degenerative feed-forward cycle is activated, resulting in accelerated apoptosis, synaptic dysfunction, and memory impairment.[49]
# The release of cytosolic enzyme lactate dehydrogenase (LDH) into the culture medium indicates cell death due to the disruption of membrane integrity. Cell deathwas assessed by measuring LDH release in the culture medium by photocolorimetric kit according to the manufacturer’s protocol (Abcam, Cambridge, MA, USA). […]
# Next, 50 µl culture supernatant was collected from each well and added to an assay mixture that was prepared by adding an equal amount of LDH substrate, co-factors, and dye solutions and incubated in the dark for 40mins at 37°C. […] Absorbance was measured at 490 nm with a reference filter of 660nm. […]
# Generation of intracellular reactive oxygen species was measured by a spectrofluorimetric method using peroxide sensitive fluorescent probe 2′,7′-Dichlorofluorescin diacetate (DCFH-DA).11 In brief, SH-SY5Y […]
# or both for 24h. […] Cells were then washed twice with PBS, and fluorescent intensity was measured by using a fluorescence microplate reader (Bio Rad, CA, USA) with an excitation filter of 490 nm and an emission filter of 520 nm.
compound,measurement,setting,value
CC(C)C[C@H](NC(=O)CNC(=O)CCC(=O)NCCCOCCOCCOCCCNC(=O)CCCCC(=O)NCC(=O)N(C)[C@@H](CC(C)C)C(=O)N[C@H](C(=O)N(C)[C@@H](Cc1ccccc1)C(=O)N[C@@H](Cc1ccccc1)C(=O)N[C@@H](C)C(N)=O)C(C)C)C(=O)N(C)[C@H](C(=O)N[C@@H](Cc1ccccc1)C(=O)N(C)[C@@H](Cc1ccccc1)C(=O)N[C@@H](C)C(N)=O)C(C)C [SP1] (I: GL[NMeV]F[NMeF]A-NH2 / II: G[NMeL]V[NMeF]FA-NH2; linker I:N-II:N via X1),mortality and behavioral patterns,"[1]; 100 and 500 μg kg−1, tail vein, 42 days",causes neither mortality nor abnormal behavioral patterns in rats
same,body weight,"[1]; 100 and 500 μg kg−1, days 7, 21, and 42, vs control",did not observe any significant changes in the rats' body weight
Aβ40: commercially available Aβ40 peptide,"intensity of Nissl granules, Aβ40 alone",[2],significant (P < 0.01) decrease in the intensity of Nissl granules
same,"ROS marker intensity, Aβ40 alone",[3],increased in the presence of Aβ40 compared to untreated cells
